Source: patent US12529700B2, “Methods for identifying cancer” (NDSU Research Foundation, priority 2021, dated 2026)

Test system: MIA PaCa-2 cells
Assay: Gemcitabine treatment, cell viability by CCK-8 assay
Assay type: cell-based, human
Settings: method says 20 μM for 48 hr
Protocol: Gemcitabine Treatment Cells were seeded in 96-well plates at a density of 10^4 cells/well. […] Cell viability was accessed by CCK-8 assay following the manufacturer's instructions. Briefly, a mixture of 10 μL of CCK-8 and 190 μL media was added into each well, and the cells were incubated for another 1 hr. The absorbance of each well was measured at 450 nm using a microplate reader. Each experiment was performed in 6 repeats.

## Nc1ccn([C@@H]2O[C@H](CO)[C@@H](O)C2(F)F)c(=O)n1 [gemcitabine]
  viability of malignant MIA PaCa-2 cells with vs without gemcitabine treatment: dramatic decrease in viability
